What was measured:
[1] = system: HIV; assay: Inhibition of cytopathic effect (CPE) in HTLV-1 transformed MT-2 cells infected with HIV virus; assay type: cell-based; conditions: MT2, 168 h, anti-HIV in vitro, inhibition of CPE measured seven days after infection, read-out: ID50 (50% inhib. conc.)
Protocol: The assays were done in HTLV-1 transformed MT-2 cells infected with HIV virus. Inhibition of cytopathic effect CPE) was measured seven days after infection in comparison with control infected cells (Elaine Kinney-Thomas,(Bioch. Pharm., vol.36,pp 311-316, 1987).

[2] = system: HIV; conditions: cited from earlier work; for anti-HIV activity: statement in words
[3] = compared with ddA; cited from earlier work

| SMILES | IC50 [1] | other results |
| --- | --- | --- |
| Nc1ccn([C@@H]2O[C@H](CO)C=C2F)c(=O)n1 [Compound 16, 2',3'-Dideoxy-2',3'-dehydro-2'-fluoro-cytidine] | 15 to 48 µM | – |
| Cc1cn([C@@H]2O[C@H](CO)C[C@@H]2F)c(=O)[nH]c1=O [Compound 7, 2', 3'-Dideoxy-2'-fluoroarabino-thymidine] | > 100 µM | – |
| Nc1ncnc2c1ncn2[C@@H]1O[C@H](CO)C[C@H]1F [Compound B, 6-amino-(β'D-2',3'-dideoxy-2'-fluororibofuranosyl)-9-H-purine] | – | protection against HIV relative to that seen with ddA ([2]; % of protection seen with ddA): 13%; anti-HIV activity [2]: active anti-HIV agents; toxicity relative to ddA [3]: more toxic than ddA |
| Nc1ncnc2c1ncn2[C@@H]1O[C@H](CO)C[C@@H]1F [Compound C, 6-amino-9-(β-D-2',3'-dideoxy-2'-fluoroarabinofuranosyl)-H-purine] | – | activity and potency against HIV relative to AZT or ddA ([2]; compared with AZT or ddA): about as active and potent as AZT or ddA; anti-HIV activity [2]: active anti-HIV agents |
| Cc1cn([C@@H]2O[C@H](CO)C=C2F)c(=O)[nH]c1=O [Compound 11, 2',3'-Dideoxy-2'3'-didehydro-2'-fluoro-thymidine] | 10 to 100 µM | – |
| Nc1ccn([C@@H]2O[C@H](CO)C[C@@H]2F)c(=O)n1 [Compound 5, 2',3'-Dideoxy-2'-fluoroarabino-cytidine] | 4 µM | – |
| Cc1cn([C@@H]2O[C@H](CO)[C@@H](N=[N+]=[N-])[C@@H]2F)c(=O)[nH]c1=O [Compound 17, 2',3'-Dideoxy-2'-fluoroarabino-3'-azido-thymidine] | > 100 µM | – |

Reference: patent US5126506A, “2',3'-Dideoxy-2'-fluoronucleosides” (Bristol-Myers Company, priority 1990, dated 1992)
